From ChEMBL document CHEMBL1150986, “Tripeptidyl pyridinium methyl ketones as potent active site inhibitors of thrombin” (Bioorg Med Chem Lett, 1996) come the findings set out here.

pIC50, pKi: −log10 of the molar value.

The target of test [1] is T1, Prothrombin (Homo sapiens, UniProt P00734). Description: Compound was measured for the inhibition of alpha-human thrombin by clotting test.
For test [2], the target named is T1, Prothrombin. The test is described as follows: Compound was measured for the inhibition of alpha-human thrombin by amidolytic assay.

Regarding `CC(=O)N[C@H](CC1CCCCC1)C(=O)N1CCC[C@H]1C(=O)N[C@@H](CCCN=C(N)N)C(=O)C[n+]1ccccc1`, at Prothrombin [1], the pKi is 7.68. On Prothrombin [2], this compound gave a pIC50 of 6.74.

`N=C(N)NCCC[C@H](NC(=O)[C@@H]1CCCN1C(=O)[C@H](N)CC1CCCCC1)C(=O)C[n+]1ccccc1` gave a pKi at Prothrombin [1] of 9.72. In addition, the pIC50 at Prothrombin [2] was 8.77.

`CC(=O)[C@H](CCCN=C(N)N)NC(=O)[C@@H]1CCCN1C(=O)[C@H](N)CC1CCCCC1` showed a pKi on Prothrombin [1] of 7.22. For the same compound, on Prothrombin [2], the pIC50 is 6.39.

Turning to `N=C(N)NCCC[C@H](NC(=O)[C@@H]1CCCN1C(=O)[C@H](N)CC1CCCCC1)C(=O)Cc1ccccc1`, the pKi on Prothrombin [1] was 8.90. This compound also gave a pIC50 against Prothrombin [2] of 8.00.

On Prothrombin [1], `CC(=O)N[C@H](Cc1ccccc1)C(=O)N1CCC[C@H]1C(=O)N[C@@H](CCCNC(=N)N)C(=O)C[n+]1ccccc1` had a pKi of 6.51. At Prothrombin [2], this compound had a pIC50 of 5.57.

Consider `CC(=O)N[C@H](CC1CCCCC1)C(=O)N1CCC[C@H]1C(=O)N[C@@H](CCCN=C(N)N)C(=O)Cc1ccccc1`, for which the pKi at Prothrombin [1] is 6.73. At Prothrombin [2], this compound had a pIC50 of 6.20.

The term pKi denotes the Ki on a negative log10 scale, so that one unit is a factor of ten. Read a high pKi as a low Ki. As a reminder, the pIC50 is the IC50 on a negative log10 scale, so that one unit is a factor of ten. Lower therefore signals a large IC50.
